Measured values: patent publication US10829520B2, “Beta-hairpin peptidomimetics” (POLYPHOR AG, priority 2015, dated 2020)
Where a SMILES comes first, the peptide text is derived from it. Bridges are numbered along the chain shown (N, C = ends). Roman numbers before positions name the chains, in order. [ ]: non-standard residue; d: D form. Pen = CC(C)(S)[C@H](N)C(=O)O; Tle = CC(C)(C)[C@H](N)C(=O)O; dDab = NCC[C@@H](N)C(=O)O; Nle = CCCC[C@H](N)C(=O)O; Orn = NCCC[C@H](N)C(=O)O; Dab = NCC[C@H](N)C(=O)O; Dap = NC[C@H](N)C(=O)O; Sar = CNCC(=O)O

Experiments:
Type in all cases: cell-based
[1] = system: human red blood cells (hRBC); assay: Hemolysis of human red blood cells; conditions: red cells of human, 1 h
Procedure, shortened: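 Each peptide was tested at a single concentration, 100 μg/mL. Erythrocytes (20% v/v) were incubated 1 h at 37° C. under shaking at 300 rpm, centrifuged, and released hemoglobin measured at OD540. Controls were PBS containing 0.001% acetic acid (0%) and Triton X-100 (100%).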

[2] = system: Acinetobacter baumannii 872842; conditions: 872842
[3] = system: Pseudomonas aeruginosa ATCC 27853; conditions: ATCC 27853
Procedure, shortened: (§1)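 Peptide stocks (1 mg/mL, water) were diluted two-fold into MH-II broth with 0.002% P-80 and mixed with approx. 10^6 CFU/mL bacteria. Plates were read visually after 18-20 hours at 35° C, with MIC expressed in μg/mL per CLSI.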

[4] = system: Acinetobacter baumannii DSM 30008; conditions: DSM 30008
Procedure, shortened: as §1

[5] = system: Escherichia coli ATCC 25922; conditions: ATCC 25922
Procedure, shortened: as §1

[6] = system: Klebsiella pneumoniae 968733; conditions: 968733
[7] = system: Escherichia coli 926415; conditions: 926415
[8] = system: Klebsiella pneumoniae SSI #3010; conditions: SSI #3010
Procedure, shortened: as §1

## CC(C)C[C@@H]1NC(=O)[C@@H](CC(C)C)NC(=O)[C@H](CCN)NC(=O)[C@@H](NC(=O)[C@H](CCN)NC(=O)[C@H](NC(=O)[C@H](CCN)NC(=O)[C@H](CCCN)NC(=O)[C@@H]2CSSC[C@H](NC(=O)[C@@H](N)Cc3c[nH]c4ccccc34)C(=O)N[C@@H](C(C)C)C(=O)N[C@@H](C)C(=O)N[C@@H](CO)C(=O)N3CCC[C@@H]3C(=O)N3CCC[C@H]3C(=O)N[C@@H](CC(C)C)C(=O)N[C@@H](CO)C(=O)N[C@@H](Cc3ccc(O)cc3)C(=O)N2)[C@H](C)O)CCNC(=O)[C@H]([C@@H](C)O)NC(=O)[C@H](CCN)NC(=O)[C@H](CCN)NC1=O [Ex. 121] (H-WCVAS[dP]PLSYC[Orn][Dab][dT][Dab][Dab][Dab][dL]L[Dab][Dab]T; disulfide 2-11; lactam 16-C)
[1]; 100 μg/mL
  Hemolysis at 100 μg/mL: <1%
[2]
  Acinetobacter baumannii 872842 MIC: 0.125 µg/mL
[3]
  Pseudomonas aeruginosa ATCC 27853 MIC: 0.5 µg/mL
[4]
  Acinetobacter baumannii DSM 30008 MIC: 0.125 µg/mL
[5]
  Escherichia coli ATCC 25922 MIC: 0.125 µg/mL
[6]
  Klebsiella pneumoniae 968733 MIC: 0.25 µg/mL
[7]
  Escherichia coli 926415 MIC: 0.125 µg/mL
[8]
  Klebsiella pneumoniae SSI #3010 MIC: 0.25 µg/mL

## CCCC[C@@H]1NC(=O)[C@@H]2CCCN2C(=O)[C@H]2CCCN2C(=O)[C@H](CO)NC(=O)[C@H](C)NC(=O)[C@H](C(C)(C)C)NC(=O)[C@H](CCN)NC(=O)[C@H](Cc2c[nH]c3ccccc23)NC(=O)[C@H](NC(C)=O)CSSC[C@@H](C(=O)N[C@@H](CCN)C(=O)N[C@H](C(=O)N[C@@H](CCN)C(=O)N[C@H]2CCNC(=O)[C@H]([C@@H](C)O)NC(=O)[C@H](CCN)NC(=O)[C@H](CCN)NC(=O)[C@H](CC(C)C)NC(=O)[C@@H](Cc3ccccc3)NC(=O)[C@H](CCN)NC2=O)[C@@H](C)O)NC(=O)[C@H](CCCN)NC(=O)[C@H](CCN)NC(=O)[C@H](Cc2ccc(O)cc2)NC(=O)[C@H](CO)NC1=O [Ex. 63] (Ac-[dC]W[Dab][Tle]AS[dP]P[Nle]SY[Dab][Orn]C[Dab]T[Dab][Dab][Dab][dF]L[Dab][Dab]T; disulfide 1-14; lactam 18-C)
[1]; 100 μg/mL
  Hemolysis at 100 μg/mL: <1%
[2]
  Acinetobacter baumannii 872842 MIC: 2 µg/mL
[3]
  Pseudomonas aeruginosa ATCC 27853 MIC: 0.5 µg/mL
[4]
  Acinetobacter baumannii DSM 30008 MIC: 2 µg/mL
[5]
  Escherichia coli ATCC 25922 MIC: 0.5 µg/mL
[6]
  Klebsiella pneumoniae 968733 MIC: 8 µg/mL
[7]
  Escherichia coli 926415 MIC: 3 µg/mL
[8]
  Klebsiella pneumoniae SSI #3010 MIC: 2 µg/mL

## CC(C)C[C@@H]1NC(=O)[C@H](CO)NC(=O)[C@H](C(C)C)NC(=O)[C@@H]2CCCN2C(=O)[C@H]2CCCN2C(=O)[C@H](CO)NC(=O)[C@H](C)NC(=O)[C@H](C(C)(C)C)NC(=O)[C@@H](NC(=O)[C@@H](N)Cc2c[nH]c3ccccc23)CSSC[C@@H](C(=O)N[C@@H](CCCN)C(=O)N[C@@H](CCN)C(=O)N[C@H]2CCNC(=O)[C@H]([C@@H](C)O)NC(=O)[C@H](CCN)NC(=O)[C@H](CCN)NC(=O)[C@H](CC(C)C)NC(=O)[C@@H](Cc3ccccc3)NC(=O)[C@H](CCN)NC2=O)NC1=O [Ex. 188] (H-WC[Tle]AS[dP]PVSLC[Orn][Dab][Dab][Dab][dF]L[Dab][Dab]T; disulfide 2-11; lactam 14-C)
[1]; 100 μg/mL
  Hemolysis at 100 μg/mL: <1%
[2]
  Acinetobacter baumannii 872842 MIC: 1 µg/mL
[3]
  Pseudomonas aeruginosa ATCC 27853 MIC: 1 µg/mL
[4]
  Acinetobacter baumannii DSM 30008 MIC: 0.25 µg/mL
[5]
  Escherichia coli ATCC 25922 MIC: 0.25 µg/mL
[6]
  Klebsiella pneumoniae 968733 MIC: 4 µg/mL
[7]
  Escherichia coli 926415 MIC: 0.25 µg/mL
[8]
  Klebsiella pneumoniae SSI #3010 MIC: 0.25 µg/mL

## CC(C)C[C@@H]1NC(=O)[C@@H](CC(C)C)NC(=O)[C@H](CCN)NC(=O)[C@@H](NC(=O)[C@H](CCN)NC(=O)[C@@H](NC(=O)[C@H](CCN)NC(=O)[C@H](CCN)NC(=O)[C@H]2NC(=O)[C@H](Cc3ccc(O)cc3)NC(=O)[C@H](CO)NC(=O)[C@H](CC(C)C)NC(=O)[C@@H]3CCCN3C(=O)[C@H]3CCCN3C(=O)[C@H](CO)NC(=O)[C@H](C)NC(=O)[C@H](C(C)C)NC(=O)[C@@H](NC(=O)[C@@H](N)Cc3c[nH]c4ccccc34)C(C)(C)SSC2(C)C)[C@@H](C)O)CCNC(=O)[C@H]([C@@H](C)O)NC(=O)[C@H](CCN)NC(=O)[C@H](CCN)NC1=O [Ex. 122] (H-W[Pen]VAS[dP]PLSY[Pen][Dab][Dab]T[Dab][Dab][Dab][dL]L[Dab][Dab]T; disulfide 2-11; lactam 16-C)
[1]; 100 μg/mL
  Hemolysis at 100 μg/mL: 2%
[2]
  Acinetobacter baumannii 872842 MIC: 0.03125 µg/mL
[3]
  Pseudomonas aeruginosa ATCC 27853 MIC: 0.5 µg/mL
[4]
  Acinetobacter baumannii DSM 30008 MIC: 0.125 µg/mL
[5]
  Escherichia coli ATCC 25922 MIC: 0.0625 µg/mL
[6]
  Klebsiella pneumoniae 968733 MIC: 1 µg/mL
[7]
  Escherichia coli 926415 MIC: 0.25 µg/mL
[8]
  Klebsiella pneumoniae SSI #3010 MIC: 0.5 µg/mL

## CCCC[C@@H]1NC(=O)[C@@H]2CCCN2C(=O)[C@H]2CCCN2C(=O)[C@H](C)NC(=O)[C@H](CO)NC(=O)[C@H](C(C)C)NC(=O)[C@@H](NC(=O)[C@@H](N)Cc2c[nH]c3ccccc23)CSSC[C@@H](C(=O)N(C)CC(=O)N[C@@H](CCN)C(=O)N[C@H](C(=O)N[C@@H](CCN)C(=O)N[C@H]2CCNC(=O)[C@H]([C@@H](C)O)NC(=O)[C@H](CCN)NC(=O)[C@H](CCN)NC(=O)[C@H](CC(C)C)NC(=O)[C@@H](CC(C)C)NC(=O)[C@H](CCN)NC2=O)[C@@H](C)O)NC(=O)[C@H](Cc2ccc(O)cc2)NC(=O)[C@H](CN)NC1=O [Ex. 141] (H-WCVSA[dP]P[Nle][Dap]YC[Sar][Dab]T[Dab][Dab][Dab][dL]L[Dab][Dab]T; disulfide 2-11; lactam 16-C)
[1]; 100 μg/mL
  Hemolysis at 100 μg/mL: <1%
[2]
  Acinetobacter baumannii 872842 MIC: 0.125 µg/mL
[3]
  Pseudomonas aeruginosa ATCC 27853 MIC: 2 µg/mL
[4]
  Acinetobacter baumannii DSM 30008 MIC: 0.125 µg/mL
[5]
  Escherichia coli ATCC 25922 MIC: 0.0625 µg/mL
[6]
  Klebsiella pneumoniae 968733 MIC: 2 µg/mL
[7]
  Escherichia coli 926415 MIC: 0.125 µg/mL
[8]
  Klebsiella pneumoniae SSI #3010 MIC: 0.125 µg/mL

## CC(C)C[C@@H]1NC(=O)[C@H]([C@@H](C)O)NC(=O)[C@H]2CCCN2C(=O)[C@H](CO)NC(=O)[C@H](C)NC(=O)[C@H](C(C)C)NC(=O)[C@@H](NC(=O)[C@@H](N)Cc2c[nH]c3ccccc23)CSSC[C@@H](C(=O)NCC(=O)N[C@@H](CCN)C(=O)N[C@H](C(=O)N[C@@H](CCN)C(=O)N[C@H]2CCNC(=O)[C@H]([C@@H](C)O)NC(=O)[C@H](CCN)NC(=O)[C@H](CCN)NC(=O)[C@H](CC(C)C)NC(=O)[C@@H](CC(C)C)NC(=O)[C@H](CCN)NC2=O)[C@@H](C)O)NC(=O)[C@H](Cc2ccc(O)cc2)NC(=O)[C@H](CO)NC1=O [Ex. 126] (H-WCVAS[dP]TLSYCG[Dab]T[Dab][Dab][Dab][dL]L[Dab][Dab]T; disulfide 2-11; lactam 16-C)
[1]; 100 μg/mL
  Hemolysis at 100 μg/mL: 1%
[2]
  Acinetobacter baumannii 872842 MIC: 0.125 µg/mL
[3]
  Pseudomonas aeruginosa ATCC 27853 MIC: 0.5 µg/mL
[4]
  Acinetobacter baumannii DSM 30008 MIC: 0.0625 µg/mL
[5]
  Escherichia coli ATCC 25922 MIC: 0.0625 µg/mL
[6]
  Klebsiella pneumoniae 968733 MIC: 0.5 µg/mL
[7]
  Escherichia coli 926415 MIC: 0.5 µg/mL
[8]
  Klebsiella pneumoniae SSI #3010 MIC: 0.0625 µg/mL

## CCCC[C@@H]1NC(=O)[C@@H]2CCCN2C(=O)[C@H]2CCCN2C(=O)[C@H](CO)NC(=O)[C@H](C)NC(=O)[C@H](C(C)(C)C)NC(=O)[C@@H](NC(=O)[C@H](Cc2c[nH]c3ccccc23)NC(=O)[C@H](C)NC(C)=O)CSSC[C@@H](C(=O)N[C@@H](CCN)C(=O)N[C@H](C(=O)N[C@@H](CCN)C(=O)N[C@H]2CCNC(=O)[C@H]([C@@H](C)O)NC(=O)[C@H](CCN)NC(=O)[C@H](CCN)NC(=O)[C@H](CC(C)C)NC(=O)[C@@H](Cc3ccccc3)NC(=O)[C@H](CCN)NC2=O)[C@@H](C)O)NC(=O)[C@H](Cc2ccc(O)cc2)NC(=O)[C@H](CO)NC1=O [Ex. 41] (Ac-AWC[Tle]AS[dP]P[Nle]SYC[Dab]T[Dab][Dab][Dab][dF]L[Dab][Dab]T; disulfide 3-12; lactam 16-C)
[1]; 100 μg/mL
  Hemolysis at 100 μg/mL: <1%
[2]
  Acinetobacter baumannii 872842 MIC: 0.5 µg/mL
[3]
  Pseudomonas aeruginosa ATCC 27853 MIC: 0.5 µg/mL
[4]
  Acinetobacter baumannii DSM 30008 MIC: 0.5 µg/mL
[5]
  Escherichia coli ATCC 25922 MIC: 2 µg/mL
[6]
  Klebsiella pneumoniae 968733 MIC: 1 µg/mL
[7]
  Escherichia coli 926415 MIC: 0.5 µg/mL
[8]
  Klebsiella pneumoniae SSI #3010 MIC: 0.25 µg/mL

## CC(C)C[C@@H]1NC(=O)[C@@H](CC(C)C)NC(=O)[C@H](CCN)NC(=O)[C@@H](NC(=O)[C@H](CCN)NC(=O)[C@@H](NC(=O)[C@H](CCN)NC(=O)CC[C@@H]2NC(=O)[C@H](CCN)NC(=O)[C@H](Cc3ccc(O)cc3)NC(=O)[C@H](CO)NC(=O)[C@H](CC(C)C)NC(=O)[C@@H]3CCCN3C(=O)[C@H]3CCCN3C(=O)[C@H](CO)NC(=O)[C@H](Cc3ccc(O)cc3)NC(=O)[C@H](C(C)C)NC(=O)[C@H](CCN)NC(=O)[C@H](Cc3c[nH]c4ccccc34)NC(=O)[C@H](CCN)NC(=O)[C@@H](CCN)NC2=O)[C@@H](C)O)CCNC(=O)[C@H]([C@@H](C)O)NC(=O)[C@H](CCN)NC(=O)[C@H](CCN)NC1=O [Ex. 95] (I: cyclo(LSY[Dab]E[dDab][Dab]W[Dab]VYS[dP]P) / II: [Dab]T[Dab][Dab][Dab][dL]L[Dab][Dab]T; amide I:5-II:N; lactam II:4-II:C)
[1]; 100
  Hemolysis at 100 μg/mL: 1%
[2]
  Acinetobacter baumannii 872842 MIC: 1 µg/mL
[3]
  Pseudomonas aeruginosa ATCC 27853 MIC: 0.5 µg/mL
[4]
  Acinetobacter baumannii DSM 30008 MIC: 0.5 µg/mL
[5]
  Escherichia coli ATCC 25922 MIC: 0.25 µg/mL
[6]
  Klebsiella pneumoniae 968733 MIC: 1 µg/mL
[7]
  Escherichia coli 926415 MIC: 1 µg/mL
[8]
  Klebsiella pneumoniae SSI #3010 MIC: 0.5 µg/mL
